Experimental data reported in paper PMC5053573, “Structure-Based Design of Tetrahydroisoquinoline-7-carboxamides as Selective Discoidin Domain Receptor 1 (DDR1) Inhibitors” (Journal of Medicinal Chemistry, 2016).

Experiments:
Assay in all cases: biochemical
Settings in all cases: read-out: %Ctrl @ 1000nM
PAK2 = PAK2 (Homo sapiens, UniProt Q13177)
MET(Y1235D) = MET(Y1235D) (Homo sapiens, UniProt P08581, Y1235D)
PIK3CA(C420R) = PIK3CA(C420R) (Homo sapiens, UniProt P42336, C420R)
[1] = molecular target: ABL1(F317I)-nonphosphorylated (Homo sapiens, UniProt P00519, F317I)
EGFR(L861Q) = EGFR(L861Q) (Homo sapiens, UniProt P00533, L861Q)
MAK = MAK (Homo sapiens, UniProt P20794)
CASK = CASK (Homo sapiens, UniProt O14936)
FLT3(ITD,D835V) = FLT3(ITD,D835V) (Homo sapiens, UniProt P36888, D835V/ITD)
KIT(V559D) = KIT(V559D) (Homo sapiens, UniProt P10721, V559D)
IKK-epsilon = molecular target: T1, IKK-epsilon (Homo sapiens, UniProt Q14164)
T1 construct: gene IKBKE

PLK3 = PLK3 (Homo sapiens, UniProt Q9H4B4)
TNK1 = TNK1 (Homo sapiens, UniProt Q13470)
EGFR(T790M) = EGFR(T790M) (Homo sapiens, UniProt P00533, T790M)
PCTK2 = molecular target: T2, PCTK2 (Homo sapiens, UniProt Q00537)
T2 construct: gene CDK17

BRSK1 = BRSK1 (Homo sapiens, UniProt Q8TDC3)
SGK3 = SGK3 (Homo sapiens, UniProt Q96BR1)
IGF1R = IGF1R (Homo sapiens, UniProt P08069)
TESK1 = TESK1 (Homo sapiens, UniProt Q15569)
[2] = molecular target: ABL1(T315I)-phosphorylated (Homo sapiens, UniProt P00519, T315I)
CSNK1E = CSNK1E (Homo sapiens, UniProt P49674)
EGFR(L747-T751del,Sins) = EGFR(L747-T751del,Sins) (Homo sapiens, UniProt P00533, DEL747-750/T751S)
PIK3CA(H1047Y) = PIK3CA(H1047Y) (Homo sapiens, UniProt P42336, H1047Y)
TAOK1 = TAOK1 (Homo sapiens, UniProt Q7L7X3)
KIT(V559D,V654A) = KIT(V559D,V654A) (Homo sapiens, UniProt P10721, V559D/V654A)
PHKG1 = PHKG1 (Homo sapiens, UniProt Q16816)
EGFR = EGFR (Homo sapiens, UniProt P00533)
[3] = molecular target: EGFR(L747-E749del, A750P) (Homo sapiens, UniProt P00533, A750P/DEL747-749)
PRKR = molecular target: T3, PRKR (Homo sapiens, UniProt P19525)
T3 construct: gene EIF2AK2

PIK4CB = molecular target: T4, PIK4CB (Homo sapiens, UniProt Q9UBF8)
T4 construct: gene PI4KB

MEK3 = molecular target: T5, MEK3 (Homo sapiens, UniProt P46734)
T5 construct: gene MAP2K3

[4] = molecular target: ABL1(Y253F)-phosphorylated (Homo sapiens, UniProt P00519, Y253F)
CLK1 = CLK1 (Homo sapiens, UniProt P49759)
HPK1 = molecular target: T6, HPK1 (Homo sapiens, UniProt Q92918)
T6 construct: gene MAP4K1

Chain of PIK3CA(H1047Y) (P42336 whole entry H1047Y): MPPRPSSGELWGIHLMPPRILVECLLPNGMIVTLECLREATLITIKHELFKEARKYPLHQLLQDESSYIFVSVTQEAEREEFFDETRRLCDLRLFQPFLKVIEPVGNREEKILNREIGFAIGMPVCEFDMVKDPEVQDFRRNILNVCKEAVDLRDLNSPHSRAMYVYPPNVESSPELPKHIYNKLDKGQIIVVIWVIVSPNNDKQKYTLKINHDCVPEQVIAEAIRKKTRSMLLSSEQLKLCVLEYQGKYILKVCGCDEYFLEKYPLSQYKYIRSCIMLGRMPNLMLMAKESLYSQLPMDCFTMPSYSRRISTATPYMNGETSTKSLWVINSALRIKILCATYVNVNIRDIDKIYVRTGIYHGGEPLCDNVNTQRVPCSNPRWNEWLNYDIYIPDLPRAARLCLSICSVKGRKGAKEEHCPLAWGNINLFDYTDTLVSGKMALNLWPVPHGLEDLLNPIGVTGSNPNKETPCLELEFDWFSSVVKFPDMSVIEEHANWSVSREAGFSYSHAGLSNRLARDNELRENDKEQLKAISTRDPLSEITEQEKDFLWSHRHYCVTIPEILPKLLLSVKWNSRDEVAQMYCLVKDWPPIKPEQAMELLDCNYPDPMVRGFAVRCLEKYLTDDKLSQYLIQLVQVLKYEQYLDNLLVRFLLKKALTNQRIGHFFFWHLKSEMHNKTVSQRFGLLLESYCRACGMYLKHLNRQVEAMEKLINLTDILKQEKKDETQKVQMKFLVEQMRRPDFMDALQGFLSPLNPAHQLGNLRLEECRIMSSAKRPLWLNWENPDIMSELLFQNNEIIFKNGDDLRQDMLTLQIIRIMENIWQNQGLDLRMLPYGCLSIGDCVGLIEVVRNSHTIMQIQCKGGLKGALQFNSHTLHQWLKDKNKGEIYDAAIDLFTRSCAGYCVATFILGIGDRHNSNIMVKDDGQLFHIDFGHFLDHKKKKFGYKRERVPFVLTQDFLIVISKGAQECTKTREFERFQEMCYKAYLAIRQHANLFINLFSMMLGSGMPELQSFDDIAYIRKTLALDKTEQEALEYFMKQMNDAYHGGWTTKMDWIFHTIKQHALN
Chain of BRSK1 (Q8TDC3 whole entry): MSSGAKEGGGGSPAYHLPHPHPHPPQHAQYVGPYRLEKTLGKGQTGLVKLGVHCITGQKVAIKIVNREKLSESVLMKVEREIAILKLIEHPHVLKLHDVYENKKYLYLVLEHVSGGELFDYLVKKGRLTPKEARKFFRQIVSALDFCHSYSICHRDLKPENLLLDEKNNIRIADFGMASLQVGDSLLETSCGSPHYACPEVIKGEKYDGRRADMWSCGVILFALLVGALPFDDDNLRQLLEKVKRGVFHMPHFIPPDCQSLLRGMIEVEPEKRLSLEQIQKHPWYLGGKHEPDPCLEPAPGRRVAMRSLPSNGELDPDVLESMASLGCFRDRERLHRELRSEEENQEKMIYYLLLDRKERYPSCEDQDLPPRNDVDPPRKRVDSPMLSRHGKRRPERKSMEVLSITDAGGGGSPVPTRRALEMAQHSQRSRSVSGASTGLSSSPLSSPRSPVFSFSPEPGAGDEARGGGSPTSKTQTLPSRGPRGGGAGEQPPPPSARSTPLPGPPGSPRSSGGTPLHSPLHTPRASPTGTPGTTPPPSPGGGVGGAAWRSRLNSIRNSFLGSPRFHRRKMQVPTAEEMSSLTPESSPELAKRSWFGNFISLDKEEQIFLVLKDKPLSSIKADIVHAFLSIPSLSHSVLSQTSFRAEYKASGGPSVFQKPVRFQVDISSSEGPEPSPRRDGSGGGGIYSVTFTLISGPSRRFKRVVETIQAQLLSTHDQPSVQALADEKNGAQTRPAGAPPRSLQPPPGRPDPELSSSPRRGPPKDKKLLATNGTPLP
Chain of IGF1R (P08069 whole entry): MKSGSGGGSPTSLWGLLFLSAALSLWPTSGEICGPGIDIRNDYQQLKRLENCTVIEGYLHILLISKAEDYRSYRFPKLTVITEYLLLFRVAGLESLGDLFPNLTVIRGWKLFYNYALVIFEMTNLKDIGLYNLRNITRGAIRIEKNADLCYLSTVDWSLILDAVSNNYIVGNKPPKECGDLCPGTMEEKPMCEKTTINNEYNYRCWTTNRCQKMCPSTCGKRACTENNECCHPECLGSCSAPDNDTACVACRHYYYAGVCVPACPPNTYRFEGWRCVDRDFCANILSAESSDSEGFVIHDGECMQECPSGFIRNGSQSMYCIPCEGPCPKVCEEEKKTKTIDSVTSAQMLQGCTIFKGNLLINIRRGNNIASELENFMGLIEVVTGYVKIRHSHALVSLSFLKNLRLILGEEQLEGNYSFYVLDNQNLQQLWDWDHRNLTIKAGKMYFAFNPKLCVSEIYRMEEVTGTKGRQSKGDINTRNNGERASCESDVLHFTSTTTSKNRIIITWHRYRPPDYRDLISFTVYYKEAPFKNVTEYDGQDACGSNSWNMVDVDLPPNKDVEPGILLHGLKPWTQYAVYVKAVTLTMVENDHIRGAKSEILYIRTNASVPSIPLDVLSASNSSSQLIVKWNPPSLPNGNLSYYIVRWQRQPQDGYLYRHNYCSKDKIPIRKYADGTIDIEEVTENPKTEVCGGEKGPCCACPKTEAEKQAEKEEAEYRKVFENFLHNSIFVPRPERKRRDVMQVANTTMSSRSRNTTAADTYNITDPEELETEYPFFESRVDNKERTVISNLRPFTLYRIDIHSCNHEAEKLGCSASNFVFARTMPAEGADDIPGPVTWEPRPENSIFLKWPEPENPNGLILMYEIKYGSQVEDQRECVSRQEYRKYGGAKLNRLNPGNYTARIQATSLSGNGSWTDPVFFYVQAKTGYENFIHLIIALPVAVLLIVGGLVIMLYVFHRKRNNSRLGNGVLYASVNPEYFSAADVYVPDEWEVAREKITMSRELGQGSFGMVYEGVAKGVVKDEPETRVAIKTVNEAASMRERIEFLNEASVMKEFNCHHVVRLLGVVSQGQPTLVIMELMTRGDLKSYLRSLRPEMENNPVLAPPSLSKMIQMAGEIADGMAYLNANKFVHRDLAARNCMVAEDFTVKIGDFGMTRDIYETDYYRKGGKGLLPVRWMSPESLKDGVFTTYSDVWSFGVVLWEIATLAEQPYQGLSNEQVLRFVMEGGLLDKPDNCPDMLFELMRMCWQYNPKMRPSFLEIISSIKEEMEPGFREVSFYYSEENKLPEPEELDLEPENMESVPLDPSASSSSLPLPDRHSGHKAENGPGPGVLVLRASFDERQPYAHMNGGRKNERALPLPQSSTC
Chain of SGK3 (Q96BR1 whole entry): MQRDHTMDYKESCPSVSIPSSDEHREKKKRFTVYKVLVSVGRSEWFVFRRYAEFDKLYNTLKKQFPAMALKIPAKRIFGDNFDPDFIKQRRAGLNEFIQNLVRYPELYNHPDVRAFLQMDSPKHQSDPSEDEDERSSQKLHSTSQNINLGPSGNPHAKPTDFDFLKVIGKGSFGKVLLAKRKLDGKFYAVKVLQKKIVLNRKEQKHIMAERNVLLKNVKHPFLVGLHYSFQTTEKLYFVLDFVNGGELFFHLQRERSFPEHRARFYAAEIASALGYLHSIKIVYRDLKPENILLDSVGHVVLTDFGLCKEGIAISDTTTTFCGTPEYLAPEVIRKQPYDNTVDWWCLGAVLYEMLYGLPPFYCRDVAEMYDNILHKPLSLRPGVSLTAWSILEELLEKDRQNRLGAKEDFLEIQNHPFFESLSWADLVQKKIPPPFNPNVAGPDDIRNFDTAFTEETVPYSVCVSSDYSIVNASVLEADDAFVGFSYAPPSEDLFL
T2 sequence (Q00537 whole entry): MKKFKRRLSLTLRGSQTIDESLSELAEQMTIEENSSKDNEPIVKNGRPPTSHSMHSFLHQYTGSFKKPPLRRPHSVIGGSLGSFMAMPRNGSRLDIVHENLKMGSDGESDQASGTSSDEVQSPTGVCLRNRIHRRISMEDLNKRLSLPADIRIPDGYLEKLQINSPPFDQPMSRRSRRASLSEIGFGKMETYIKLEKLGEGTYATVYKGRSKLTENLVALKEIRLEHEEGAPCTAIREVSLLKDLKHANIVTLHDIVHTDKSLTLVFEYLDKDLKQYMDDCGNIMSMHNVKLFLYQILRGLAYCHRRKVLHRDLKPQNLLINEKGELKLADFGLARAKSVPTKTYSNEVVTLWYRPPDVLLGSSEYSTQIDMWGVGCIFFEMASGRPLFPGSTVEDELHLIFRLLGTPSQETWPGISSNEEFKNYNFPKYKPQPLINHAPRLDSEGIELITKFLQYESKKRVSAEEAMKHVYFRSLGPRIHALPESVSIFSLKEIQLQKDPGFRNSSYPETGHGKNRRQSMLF
Chain of PLK3 (Q9H4B4 whole entry): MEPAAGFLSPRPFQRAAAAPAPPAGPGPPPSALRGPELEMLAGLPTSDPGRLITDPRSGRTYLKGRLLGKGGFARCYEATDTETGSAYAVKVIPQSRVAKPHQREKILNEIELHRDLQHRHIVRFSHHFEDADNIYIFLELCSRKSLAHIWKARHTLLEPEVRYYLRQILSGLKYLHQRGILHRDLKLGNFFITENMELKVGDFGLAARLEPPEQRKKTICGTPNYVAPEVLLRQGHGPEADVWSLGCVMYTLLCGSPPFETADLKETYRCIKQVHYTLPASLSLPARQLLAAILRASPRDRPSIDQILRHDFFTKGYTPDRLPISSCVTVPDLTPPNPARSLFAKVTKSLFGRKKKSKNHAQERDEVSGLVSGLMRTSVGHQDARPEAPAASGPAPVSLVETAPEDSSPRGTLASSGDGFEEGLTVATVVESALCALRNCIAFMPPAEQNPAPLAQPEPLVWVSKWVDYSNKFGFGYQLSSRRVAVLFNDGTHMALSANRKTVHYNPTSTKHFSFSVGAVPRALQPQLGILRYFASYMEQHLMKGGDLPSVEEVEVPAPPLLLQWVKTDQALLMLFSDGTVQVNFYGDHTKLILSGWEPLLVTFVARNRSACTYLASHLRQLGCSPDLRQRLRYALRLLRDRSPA
Chain of PIK3CA(C420R) (P42336 whole entry C420R): as the sequence (P42336 whole entry H1047Y) above, with C420R, Y1047H counted along it

In the case of `Cc1cn(-c2cc(NC(=O)c3ccc4c(c3)CN(c3cncnc3)C[C@@H]4C)cc(C(F)(F)F)c2)cn1` [Compound 6j], the remaining activity at 1 µM (PAK2) is reported as 85%, the remaining activity at 1 µM (MET(Y1235D)) is reported as 68% and the remaining activity at 1 µM (PIK3CA(C420R)) is reported as 97%. For the same compound, the remaining activity at 1 µM [1] was 80%, the remaining activity at 1 µM (EGFR(L861Q)) was 97% and the remaining activity at 1 µM (MAK) was 95%. It also gave a remaining activity at 1 µM (CASK) of 100%, a remaining activity at 1 µM (FLT3(ITD,D835V)) of 23% and a remaining activity at 1 µM (KIT(V559D)) of 80%. It also gave a remaining activity at 1 µM (IKK-epsilon) of 86%, a remaining activity at 1 µM (PLK3) of 100% and a remaining activity at 1 µM (TNK1) of 79%. The remaining activity at 1 µM (EGFR(T790M)) was 100%, the remaining activity at 1 µM (PCTK2) was 96% and the remaining activity at 1 µM (BRSK1) was 98%. The remaining activity at 1 µM (SGK3) was 100%, the remaining activity at 1 µM (IGF1R) was 100% and the remaining activity at 1 µM (TESK1) was 98%. The remaining activity at 1 µM [2] was 97%, the remaining activity at 1 µM (CSNK1E) was 86% and the remaining activity at 1 µM (EGFR(L747-T751del,Sins)) was 97%. It also gave a remaining activity at 1 µM (PIK3CA(H1047Y)) of 45%, a remaining activity at 1 µM (TAOK1) of 100% and a remaining activity at 1 µM (KIT(V559D,V654A)) of 86%. It also gave a remaining activity at 1 µM (PHKG1) of 95%, a remaining activity at 1 µM (EGFR) of 94% and a remaining activity at 1 µM [3] of 92%. The remaining activity at 1 µM (PRKR) was 100%, the remaining activity at 1 µM (PIK4CB) was 95% and the remaining activity at 1 µM (MEK3) was 100%. For the same compound, the remaining activity at 1 µM [4] was 98%, the remaining activity at 1 µM (CLK1) was 92% and the remaining activity at 1 µM (HPK1) was 100%.
